Measurements reported in patent US8865623B2, “Herbicidally active cyclic diones and derivatives thereof, processes for their preparation, compositions, and method of controlling weeds” (Syngenta Limited, priority 2009, dated 2014).

Key:
Format in all cases: in vivo
[1] = test system: Alopecurus myosuroides (ALOMY); assay: Pre-emergence herbicidal activity, glasshouse pot test; conditions: Alopecurus myosuroides, 312 h, Rate 250 g/ha, evaluated after 13 days, read-out: Pre-emergence activity ALOMY (100=total damage to plant; 0=no damage to plant)
Summary of the method: (§1)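 Glasshouse pots, standard soil; spray at day 1 (pre) or day 8 (post) after sowing; a.i. in acetone/water 50:50 + 0.5% Tween 20, diluted aqueous. 24/16° C, 14 h light, 65% RH. Visual damage at 13 days: 0 = none, 100 = total.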

Lolium perenne (LOLPE) [2] = assay: as above; conditions: Lolium perenne, 312 h, Rate 250 g/ha, evaluated after 13 days, read-out: Pre-emergence activity LOLPE (100=total damage to plant; 0=no damage to plant)
Summary of the method: as §1

[3] = test system: Echinochloa crus-galli (ECHCG); assay: as above; conditions: Echinochloa crus-galli, 312 h, Rate 250 g/ha, evaluated after 13 days, read-out: Pre-emergence activity ECHCG (100=total damage to plant; 0=no damage to plant)
Summary of the method: as §1

Avena fatua (AVEFA) [4] = assay: as above; conditions: Avena fatua, 312 h, Rate 250 g/ha, evaluated after 13 days, read-out: Pre-emergence activity AVEFA (100=total damage to plant; 0=no damage to plant)
Summary of the method: as §1

[5] = test system: Alopecurus myosuroides (ALOMY); assay: Post-emergence herbicidal activity, glasshouse pot test; conditions: Alopecurus myosuroides, 312 h, rate 250 g/ha, evaluated after 13 days, read-out: Post-emergence activity ALOMY (100=total damage to plant; 0=no damage to plant)
Summary of the method: as §1

Lolium perenne (LOLPE) [6] = assay: as above; conditions: Lolium perenne, 312 h, rate 250 g/ha, evaluated after 13 days, read-out: Post-emergence activity LOLPE (100=total damage to plant; 0=no damage to plant)
Summary of the method: as §1

[7] = test system: Echinochloa crus-galli (ECHCG); assay: as above; conditions: Echinochloa crus-galli, 312 h, rate 250 g/ha, evaluated after 13 days, read-out: Post-emergence activity ECHCG (100=total damage to plant; 0=no damage to plant)
Summary of the method: as §1

Avena fatua (AVEFA) [8] = assay: as above; conditions: Avena fatua, 312 h, rate 250 g/ha, evaluated after 13 days, read-out: Post-emergence activity AVEFA (100=total damage to plant; 0=no damage to plant)
Summary of the method: as §1

Row | Structure (SMILES) | pest or weed control at 250 g/ha ([1]; pre-emergence spray) [%] | pest or weed control at 250 g/ha (Lolium perenne (LOLPE) [2]; pre-emergence spray) [%] | pest or weed control at 250 g/ha ([3]; pre-emergence spray) [%] | pest or weed control at 250 g/ha (Avena fatua (AVEFA) [4]; pre-emergence spray) [%] | pest or weed control at 250 g/ha ([5]; glasshouse) [%] | pest or weed control at 250 g/ha (Lolium perenne (LOLPE) [6]; glasshouse) [%] | pest or weed control at 250 g/ha ([7]; glasshouse) [%] | pest or weed control at 250 g/ha (Avena fatua (AVEFA) [8]; glasshouse) [%] | pest or weed control at 250 g/ha ([1]; pre-emergence) [%] | pest or weed control at 250 g/ha (Lolium perenne (LOLPE) [2]; pre-emergence) [%] | pest or weed control at 250 g/ha ([3]; pre-emergence) [%] | pest or weed control at 250 g/ha (Avena fatua (AVEFA) [4]; pre-emergence) [%] | pest or weed control at 250 g/ha [5] [%] | pest or weed control at 250 g/ha (Lolium perenne (LOLPE) [6]) [%] | pest or weed control at 250 g/ha [7] [%] | pest or weed control at 250 g/ha (Avena fatua (AVEFA) [8]) [%]
1 | CCc1ccc(Oc2nc3cc(Cl)ccc3s2)cc1C1=C(O)C(C)(C)OC(C)(C)C1=O [Example A-229] | 30 | 60 | 70 | 0 | 90 | 100 | 100 | 10 |  |  |  |  |  |  |  | 
2 | CCc1ccc(Oc2nc3ccc(OC)cc3s2)cc1C1=C(O)CC2(CCOCC2)CC1=O [Example A-264] | 90 | 90 | 100 | 80 | 90 | 100 | 100 | 90 |  |  |  |  |  |  |  | 
3 | CCc1ccc(Oc2nc3c(Cl)c(OC)ccc3s2)cc1C1=C(O)C(C)(C)OC(C)(C)C1=O [Example A-216] | 30 | 10 | 70 | 0 | 60 | 70 | 80 | 70 |  |  |  |  |  |  |  | 
4 | CCc1ccc(Oc2nc3ccccc3o2)cc1C1=C(O)C(C)(C)OC(C)(C)C1=O [Example A-118] | 100 | 100 | 100 | 80 | 90 | 100 | 100 | 80 |  |  |  |  |  |  |  | 
5 | CCc1ccc(Oc2c(F)cc(C(F)(F)F)cc2F)cc1C1=C(O)C(C)(C)OC(C)(C)C1=O [Example A-205] | 20 | 60 | 60 | 10 | 70 | 90 | 100 | 60 |  |  |  |  |  |  |  | 
6 | CCc1ccc(Oc2ccc(Br)cc2Cl)cc1C1=C(O)C(C)(C)OC(C)(C)C1=O [Example A-9] | 60 | 80 | 100 | 30 | 90 | 80 | 100 | 100 |  |  |  |  |  |  |  | 
7 | CCc1ccc(Oc2cccc(F)c2)cc1C1=C(O)C(C)(C)OC(C)(C)C1=O [Example A-58] | 0 | 0 | 70 | 0 | 0 | 0 | 80 | 0 |  |  |  |  |  |  |  | 
8 | CCc1ccc(Oc2ccc(Cl)cc2F)cc1C1=C(O)CCCC1=O [Example A-38] | 50 | 70 | 70 | 10 | 20 | 30 | 80 | 30 |  |  |  |  |  |  |  | 
9 | CCc1ccc(Oc2ccc(Br)cc2)cc1C1=C(O)CC2(CCOCC2)CC1=O [Example A-37] | 70 | 80 | 100 | 70 | 100 | 90 | 100 | 100 |  |  |  |  |  |  |  | 
10 | CCc1ccc(Oc2ccc(C(F)(F)F)c(C#N)c2)cc1C1=C(O)C(C)(C)OC(C)(C)C1=O [Example A-210] | 30 | 20 | 60 | 10 | 90 | 100 | 100 | 90 |  |  |  |  |  |  |  | 
11 | CCc1ccc(Oc2ccc(C(F)(F)F)c(Cl)c2)cc1C1=C(O)[C@H]2CC[C@H](C2)C1=O [Example A-332] | 80 | 100 | 100 | 70 | 100 | 100 | 100 | 100 |  |  |  |  |  |  |  | 
12 | CC1(C)OC(C)(C)C(O)=C(c2cc(Oc3ccc(Br)cc3)ccc2C2CC2)C1=O [Example A-351] |  |  |  |  |  |  |  |  | 60 | 90 | 100 | 10 | 90 | 100 | 100 | 10
13 | CCc1ccc(Oc2nc3ccc(Cl)cc3s2)cc1C1=C(O)[C@@H]2CC[C@](C)(C1=O)C2(C)C [Example A-320] | 80 | 100 | 100 | 80 | 100 | 90 | 100 | 100 |  |  |  |  |  |  |  | 
14 | CCc1ccc(Oc2nc3ccc(OC(F)(F)F)cc3s2)cc1C1=C(O)C(C)(C)OC(C)(C)C1=O [Example A-218] | 20 | 20 | 50 | 10 | 70 | 80 | 100 | 100 |  |  |  |  |  |  |  | 
15 | CCc1ccc(Oc2ccc(Cl)c(F)c2)cc1C1=C(O)[C@@H]2CC[C@](C)(C1=O)C2(C)C (single isomer, unassigned) [Example A-93] | 60 | 90 | 100 | 60 | 60 | 20 | 50 | 20 |  |  |  |  |  |  |  | 
16 | CC1(C)OC(C)(C)C(O)=C(c2cc(Oc3cnc4cc(F)ccc4n3)ccc2C2CC2)C1=O [Example A-372] |  |  |  |  |  |  |  |  | 70 | 100 | 90 | 90 | 100 | 100 | 100 | 100
17 | CCc1ccc(Oc2ccc(Cl)cc2)cc1C1=C(O)CC2(CCOCC2)CC1=O [Example A-36] | 90 | 90 | 100 | 90 | 100 | 90 | 100 | 100 |  |  |  |  |  |  |  | 
18 | CC1(C)OC(C)(C)C(O)=C(c2cc(Oc3ccc(Cl)cc3)ccc2OC(F)(F)F)C1=O [Example A-302] | 10 | 20 | 60 | 40 | 60 | 70 | 100 | 50 |  |  |  |  |  |  |  | 
19 | CCc1ccc(Oc2ccc(Br)cc2F)cc1C1=C(O)CC(C)(C)CC1=O [Example A-49] | 90 | 100 | 100 | 40 | 90 | 90 | 100 | 70 |  |  |  |  |  |  |  | 
